By Ki is commonly meant the dissociation constant of the complex between target and ligand, obtained from inhibition or displacement. As a reminder, the inhibition is the relative decrease from the control value, in per cent. High values mean a strong effect, low ones a weak effect.

The values that follow come from patent US5976497A, “Dopamine D4 receptor ligands” (Resolution Pharmaceuticals, Inc., priority 1997, dated 1999).

One test has as its target D4 receptor. As to conditions: marketed products, background statement; cited from earlier work.
Test [1] relates to D4 receptor relative to the D2 receptor. As to conditions: marketed products, background statement; cited from earlier work.
The next test deals with T1, D2 (Homo sapiens, UniProt P14416).
T1 construct: expressed in transfected cells; host or cells: GH4C1 (rat pituitary) cells, stably transfected; membrane preparations
Put plainly: D2 receptor-binding affinity (reduction of ^3 H-spiperone binding). As to conditions: for Ki: ^3 H-spiperone displacement, Ki by Cheng and Prusoff transformation of IC50. On the procedure:
(§1) The potency of the test compound to reduce ^3 H-spiperone binding is directly correlated to its binding affinity for the receptor.
(§2) The test compounds were assayed at a range of concentrations and the % inhibition of ^3 H-spiperone binding at each test concentration was measured. Specific binding in the absence of test compound is the difference of total binding minus non-specific binding and similarly specific binding (in the presence of test compound) is the difference of displacement binding minus non-specific binding.
(§3) where [L] is the concentration of ^3 H-spiperone used in the assay and KD is the dissociation constant of ^3 H-spiperone determined independently under the same binding conditions.

The next test deals with T2, D4 (Homo sapiens, UniProt P21917, DEL265-296).
T2 construct: expressed in transfected cells; host or cells: HEK 298 cells (so in the source); membrane preparations
T2 sequence (P21917 with tags, fused parts or gaps DEL265-296): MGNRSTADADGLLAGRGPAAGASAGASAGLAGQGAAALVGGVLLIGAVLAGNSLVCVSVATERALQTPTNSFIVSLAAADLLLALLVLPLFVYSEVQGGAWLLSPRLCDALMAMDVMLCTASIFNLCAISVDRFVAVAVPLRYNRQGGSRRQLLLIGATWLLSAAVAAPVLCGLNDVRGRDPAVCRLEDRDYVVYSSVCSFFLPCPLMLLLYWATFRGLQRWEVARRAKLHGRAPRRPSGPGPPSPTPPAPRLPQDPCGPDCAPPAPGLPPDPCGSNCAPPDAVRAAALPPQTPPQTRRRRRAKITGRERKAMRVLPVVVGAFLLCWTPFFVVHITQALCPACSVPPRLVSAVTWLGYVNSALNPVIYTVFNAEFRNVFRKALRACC
Put plainly: D4 receptor-binding affinity (reduction of ^3 H-spiperone binding). As to conditions: for Ki: ^3 H-spiperone displacement, Ki by Cheng and Prusoff transformation of IC50. The protocol:
as §1, §2, §3

Some results are limits rather than exact numbers.

T1 sequence (P14416 1-414 isoform P14416-2): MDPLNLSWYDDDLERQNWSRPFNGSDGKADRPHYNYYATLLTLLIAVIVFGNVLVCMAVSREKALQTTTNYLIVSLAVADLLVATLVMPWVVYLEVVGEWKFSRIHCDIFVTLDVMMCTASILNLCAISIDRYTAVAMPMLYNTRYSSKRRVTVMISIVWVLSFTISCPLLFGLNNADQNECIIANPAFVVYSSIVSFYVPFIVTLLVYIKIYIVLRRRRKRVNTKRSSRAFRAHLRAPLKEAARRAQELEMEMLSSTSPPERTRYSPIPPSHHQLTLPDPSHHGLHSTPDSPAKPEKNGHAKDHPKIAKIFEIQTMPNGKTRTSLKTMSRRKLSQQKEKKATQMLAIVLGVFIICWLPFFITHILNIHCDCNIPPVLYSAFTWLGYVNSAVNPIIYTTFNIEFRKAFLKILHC

Turning to `CN1CCN(C2=Nc3cc(Cl)ccc3Oc3ccccc32)CC1` [isoloxapine], the Ki on D4 receptor is ~20 nM. The “preference for binding to the D4 receptor relative to the D2 receptor” value in test [1] is given as “about 10 fold”.
Regarding `Brc1ccc(N2CCN(Cc3c[nH]c4ncccc34)CC2)nc1` [Example 3, 3-[4-(5-bromopyridin-2-yl)-piperazin-1-yl]methyl-1H-pyrrolo[2,3-b]pyridine], the inhibition at 0.001 µM at D2 (1 nM, ^3 H-spiperone) is < 10%; at D4 (1 nM, ^3 H-spiperone), 26%. For the same molecule, the inhibition at 0.01 µM on D2 (10 nM, ^3 H-spiperone) is < 10%; on D4 (10 nM, ^3 H-spiperone), 78%. Moreover, the inhibition at 0.1 µM on D2 (100 nM, ^3 H-spiperone) is < 10%; at D4 (100 nM, ^3 H-spiperone), 98%.
Consider “3-[4-(5-iodopyridin-2-yl)-piperazin-1-yl]methyl-1H-pyrrolo[2,3-b]pyridine [Example 2]”, for which the Ki was determined as 621 nM at D2 and 0.91 nM at D4.
For the molecule “3-[4-(pyridin-2-yl)-piperazin-1-yl]methyl-1H-pyrrolo[2,3-b]pyridine [Example 1]”, the values for the Ki at D2 and on D4 were 3660 nM and 1 nM, respectively.
